Our source for the TGI and GI50 values is PubChem BioAssay (NCI).

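Cultured in 96-well plates, cells were exposed to test compound for 48 hours across five concentrations. GI50 marks 50% less growth. TGI denotes the concentration required for complete inhibition of growth.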

Among the test systems are MOLT-4 leukemia; HOP-92 NSCLC; SF-539 CNS; SNB-19 CNS; NCI-H460 lung; LOX IMVI melanoma; T-47D breast; M14 melanoma; ACHN renal; UACC-62 melanoma.
What all share (test): growth of human tumour cells (NCI), 48 h

Consider `O=C(O)/C(=C\c1ccncc1)c1cccc2ccccc12`, for which the TGI with MOLT-4 leukemia, with HOP-92 NSCLC, with SF-539 CNS, in the experiment with SNB-19 CNS, with NCI-H460 lung and in the experiment with LOX IMVI melanoma was above 100 µM each time. For the same compound, the TGI with T-47D breast and in the experiment with M14 melanoma was above 100 µM throughout.
For `Nc1c(C(=O)Nc2cccc(Cl)c2Cl)sc2nc3c(cc12)C(=O)CCC3`, the GI50 is above 100 µM in the experiment with MOLT-4 leukemia; above 100 µM with HOP-92 NSCLC; above 100 µM with SF-539 CNS; 4.64 µM in the experiment with SNB-19 CNS; 0.601 µM in the experiment with NCI-H460 lung; above 100 µM in the experiment with LOX IMVI melanoma. Further, the GI50 in the experiment on T-47D breast, in the experiment with M14 melanoma and in the experiment with ACHN renal was above 100 µM in each case. For the same compound, the TGI with MOLT-4 leukemia, in the experiment on HOP-92 NSCLC, with SF-539 CNS, in the experiment on SNB-19 CNS, with NCI-H460 lung and with LOX IMVI melanoma was above 100 µM throughout. Besides, the TGI in the experiment on T-47D breast, with M14 melanoma and in the experiment with ACHN renal was above 100 µM each time.
Turning to `Cc1coc2c1C(OC(=O)C(C)C)C1(C)C(C)CCC(O)C1C2=O` (stereo not drawn), the TGI in the experiment on MOLT-4 leukemia, with HOP-92 NSCLC, in the experiment with SF-539 CNS, in the experiment on NCI-H460 lung, in the experiment on LOX IMVI melanoma and in the experiment on T-47D breast was above 100 µM throughout. In addition, the TGI with UACC-62 melanoma, in the experiment on M14 melanoma and in the experiment on ACHN renal was above 100 µM each time.
Take `COc1cccc2c1n([O-])c1cccc(OC)c1[n+]2=O`: the GI50 was 4.97 µM with MOLT-4 leukemia; 16.3 µM in the experiment with HOP-92 NSCLC; 7.85 µM in the experiment with SF-539 CNS; 3.05 µM with NCI-H460 lung; 5.19 µM in the experiment with LOX IMVI melanoma; 2.39 µM in the experiment on T-47D breast. The GI50 with UACC-62 melanoma is 9.22 µM; with M14 melanoma, 7.02 µM; in the experiment with ACHN renal it was 4.35 µM. Further, the TGI with MOLT-4 leukemia was above 100 µM; in the experiment on HOP-92 NSCLC, above 100 µM; with SF-539 CNS, above 100 µM; in the experiment with NCI-H460 lung it was 14.4 µM; with LOX IMVI melanoma, 27.2 µM; in the experiment on T-47D breast, 10.3 µM. Besides, the TGI with UACC-62 melanoma was 27.4 µM; with M14 melanoma, 26.5 µM; in the experiment on ACHN renal, above 100 µM.
Consider `O=C(CCCCC(=O)N/N=C\c1ccccc1O)N/N=C\c1ccccc1O`, for which the GI50 in the experiment on MOLT-4 leukemia was 3.01 µM; in the experiment with HOP-92 NSCLC it was 11.3 µM; in the experiment with SF-539 CNS, 3.66 µM; in the experiment with SNB-19 CNS, 5.88 µM; in the experiment on NCI-H460 lung, 3.14 µM; in the experiment with LOX IMVI melanoma, 2.3 µM. The values for the GI50 in the experiment with UACC-62 melanoma, in the experiment on M14 melanoma and in the experiment with ACHN renal were 2.5 µM, 3.39 µM and 3.53 µM, respectively. Further, the TGI in the experiment with MOLT-4 leukemia, in the experiment with HOP-92 NSCLC, in the experiment on SF-539 CNS, in the experiment on SNB-19 CNS, in the experiment on NCI-H460 lung and with LOX IMVI melanoma was above 100 µM each time. The TGI in the experiment with UACC-62 melanoma, in the experiment on M14 melanoma and in the experiment on ACHN renal was above 100 µM in each case.
With `COC(=O)c1nn(C(=N)c2ccc(Cl)cc2)c2c1CCC2`, the TGI in the experiment with MOLT-4 leukemia, in the experiment with HOP-92 NSCLC, in the experiment on SF-539 CNS, with SNB-19 CNS, in the experiment with NCI-H460 lung and in the experiment on LOX IMVI melanoma was above 100 µM each time. The TGI with UACC-62 melanoma, in the experiment on M14 melanoma and in the experiment on ACHN renal was above 100 µM throughout.
With `COc1cc(NC(=O)C2=C(N3CCOCC3)/C(=C/c3ccc(Cl)cc3)CC2)cc(OC)c1OC`, the GI50 in the experiment with MOLT-4 leukemia was above 100 µM; in the experiment on SF-539 CNS, 36 µM; in the experiment on SNB-19 CNS it was 28.8 µM; in the experiment on NCI-H460 lung, above 100 µM; with LOX IMVI melanoma it was above 100 µM; with T-47D breast, above 100 µM. The GI50 in the experiment on UACC-62 melanoma is above 100 µM; in the experiment with M14 melanoma it was above 100 µM; with ACHN renal, 16.9 µM. Further, the TGI in the experiment with MOLT-4 leukemia was above 100 µM; in the experiment with SF-539 CNS, above 100 µM; in the experiment with SNB-19 CNS, 95.1 µM; with NCI-H460 lung, above 100 µM; with LOX IMVI melanoma, above 100 µM; with T-47D breast, above 100 µM. Besides, the values for the TGI in the experiment with UACC-62 melanoma, with M14 melanoma and with ACHN renal were above 100 µM, above 100 µM and 61.8 µM, respectively.
Regarding `CC(=O)[CH-]C(C)=O.CC(=O)[CH-]C(C)=O.CC[O-].CC[O-].[Ti+4]`, the GI50 in the experiment on MOLT-4 leukemia, with HOP-92 NSCLC, in the experiment with SF-539 CNS, in the experiment with SNB-19 CNS, in the experiment with NCI-H460 lung and in the experiment on LOX IMVI melanoma was above 100 µM throughout. Besides, the GI50 with UACC-62 melanoma, with M14 melanoma and in the experiment on ACHN renal was above 100 µM in each case. In addition, the TGI with MOLT-4 leukemia, with HOP-92 NSCLC, in the experiment on SF-539 CNS, in the experiment on SNB-19 CNS, with NCI-H460 lung and with LOX IMVI melanoma was above 100 µM each time. The TGI in the experiment on UACC-62 melanoma, with M14 melanoma and with ACHN renal was above 100 µM in each case.
On to `O=C1OCC2=C1C(c1ccccc1)c1cc3c(cc1N2CCO)OCCO3` (stereo not drawn), for which the GI50 was 0.236 µM with MOLT-4 leukemia; 0.298 µM in the experiment on SF-539 CNS; 0.921 µM in the experiment on SNB-19 CNS; 0.193 µM in the experiment on NCI-H460 lung; 0.36 µM in the experiment on LOX IMVI melanoma; 0.22 µM with T-47D breast. Also, the GI50 with M14 melanoma was 0.23 µM; with ACHN renal it was 0.493 µM. For the same compound, the TGI is above 10.4 µM in the experiment with MOLT-4 leukemia; above 16.8 µM in the experiment with SNB-19 CNS; 1.96 µM in the experiment on NCI-H460 lung; above 50 µM in the experiment with LOX IMVI melanoma; above 50 µM in the experiment on T-47D breast; above 50 µM in the experiment on UACC-62 melanoma. The TGI with M14 melanoma was 1.66 µM; with ACHN renal, above 50 µM.
`COc1cc2c3c(n(C)c(=O)c2cc1OC)-c1cc2c(cc1/C3=C\CCNCCCN)OCO2`: the GI50 in the experiment with MOLT-4 leukemia is 0.364 µM; with HOP-92 NSCLC, 1.45 µM; with SF-539 CNS, 1.65 µM; in the experiment on SNB-19 CNS, 1.42 µM; with NCI-H460 lung, 0.853 µM; with T-47D breast it was 2.64 µM. Besides, the GI50 with M14 melanoma was 5.32 µM; in the experiment with ACHN renal, 1.3 µM. Besides, the TGI with MOLT-4 leukemia came to 44.4 µM; with HOP-92 NSCLC, 11.1 µM; in the experiment on SF-539 CNS it was 9.95 µM; in the experiment with SNB-19 CNS, 14.7 µM; in the experiment with NCI-H460 lung it was 20.3 µM; with T-47D breast, 15.3 µM. Further, the TGI was 20.5 µM in the experiment on M14 melanoma and 6.89 µM in the experiment with ACHN renal.
